Where “and” joins values, the source holds several entries; their conditions need not be identical. Identical values can stand only once.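 48-hour exposure; five concentrations; linearly interpolated endpoints. GI50 = concentration required for 50% inhibition of growth. Definition used: TGI = concentration required for complete inhibition of growth.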 Where only a bound is given, the exact number is not on record here.

Our source for the GI50 and TGI values is PubChem BioAssay (NCI).

Among the test systems are HS 578T breast; UO-31 renal; A549 NSCLC; NCI-H226 lung; LOX IMVI melanoma; SF-539 CNS; SW-620 colon; MDA-MB-435; KM12 colon; A498 renal.
What all share (assay): inhibition of tumour cell growth, NCI panel, 48 h

In the case of `O=C(Nc1ccc(Cl)cc1Cl)c1ccc(NC2=C(Cl)C(=O)N(Cc3ccccc3)C2=O)cc1`, the GI50 is 23.5 µM with HS 578T breast; 3.56 µM with UO-31 renal; 25.9 µM in the test with A549 NSCLC; 20.5 µM in the test on NCI-H226 lung; 6.6 µM with LOX IMVI melanoma; 18.9 µM in the test with SF-539 CNS. The GI50 was 34 µM in the test with SW-620 colon, 32.5 µM with MDA-MB-435, 21.1 µM with KM12 colon and 31.3 µM in the test with A498 renal. Further, the TGI in the test with HS 578T breast was 47 µM; in the test with UO-31 renal, > 100 µM; with A549 NSCLC, 66.1 µM; in the test on NCI-H226 lung, 45.8 µM; in the test on LOX IMVI melanoma, 19.1 µM; with SF-539 CNS it was 33.1 µM. Further, the TGI is > 100 µM in the test on SW-620 colon, > 100 µM with MDA-MB-435, 64.4 µM in the test on KM12 colon and 79.7 µM with A498 renal.
Take `Nc1ccn(C2OC(CO)C(O)C2F)c(=O)n1` (stereo not given): the GI50 in the test with HS 578T breast, in the test with UO-31 renal, in the test with A549 NSCLC, in the test with NCI-H226 lung, in the test on LOX IMVI melanoma and in the test on SF-539 CNS was > 5000 µM each time. In addition, the GI50 in the test on SW-620 colon is > 5000 µM; in the test with MDA-MB-435, 867 µM and > 5000 µM; in the test on KM12 colon, > 5000 µM; in the test on A498 renal, > 5000 µM. Moreover, the TGI in the test on HS 578T breast, in the test on UO-31 renal, in the test with A549 NSCLC, with NCI-H226 lung, with LOX IMVI melanoma and in the test with SF-539 CNS was > 5000 µM in each case. For the same compound, the TGI in the test with SW-620 colon, with MDA-MB-435, in the test on KM12 colon and with A498 renal was > 5000 µM each time.
Regarding `C[n+]1c(/C=C\C=C\N2CCCCC2)sc2ccccc21`, the GI50 with HS 578T breast is 1.11 µM; with UO-31 renal it was 13.5 µM; with A549 NSCLC it was 0.413 µM; in the test with NCI-H226 lung, 1.05 µM; in the test with LOX IMVI melanoma, 0.481 µM; in the test on SF-539 CNS, 1.03 µM. Moreover, the GI50 in the test with SW-620 colon was 0.513 µM; in the test with MDA-MB-435, 0.266 µM; in the test on KM12 colon, 0.27 µM; in the test with A498 renal, 0.293 µM. Also, the TGI in the test on HS 578T breast is 22.5 µM; in the test with UO-31 renal it was > 71.3 µM; with A549 NSCLC, 3.07 µM; with NCI-H226 lung it was 22.4 µM; in the test with LOX IMVI melanoma it was 12.9 µM; with SF-539 CNS, 15 µM. In addition, the TGI stood at 14.9 µM in the test with SW-620 colon, 1.96 µM with MDA-MB-435, 3.02 µM in the test with KM12 colon and 9.04 µM in the test with A498 renal.
On to `C(=Nc1ccccc1)C1CCCC[N-]1.C(=Nc1ccccc1)C1CCCC[N-]1.[Cu+2].[O-][Cl+3]([O-])([O-])O` (stereo not given), for which the GI50 in the test on HS 578T breast was 30.3 µM; in the test on UO-31 renal it was 12.6 µM; in the test with A549 NSCLC, > 36.8 µM; in the test on NCI-H226 lung it was 21.6 µM; in the test with LOX IMVI melanoma, 0.0132 µM; with SF-539 CNS, 17.7 µM. The GI50 with SW-620 colon is 10.4 µM; in the test with MDA-MB-435, 1.57 µM; in the test on KM12 colon it was 1.07 µM; in the test with A498 renal it was 18.1 µM. Also, the TGI in the test with HS 578T breast is > 89.5 µM; with UO-31 renal, > 94.3 µM; in the test with A549 NSCLC it was > 57.1 µM; with NCI-H226 lung, 50 µM; in the test on LOX IMVI melanoma, 11.8 µM; with SF-539 CNS it was 42.3 µM. In addition, the TGI in the test with SW-620 colon turned out to be 32.4 µM; in the test with MDA-MB-435 it was 4.31 µM; with KM12 colon, 22.4 µM; in the test on A498 renal, 44.9 µM.
Regarding `COc1cc2c(/C=N\N=C(N)N)c(Cl)[nH]c2cc1C`, the GI50 was 10.8 µM with HS 578T breast; 27.5 µM with UO-31 renal; 18.6 µM in the test on A549 NSCLC; 10.5 µM with NCI-H226 lung; 11.4 µM in the test on LOX IMVI melanoma; 10.2 µM in the test on SF-539 CNS. In addition, the GI50 with SW-620 colon was 14.7 µM; with MDA-MB-435, 12.2 µM; in the test with KM12 colon it was 7.17 µM; in the test on A498 renal, 19.9 µM. The TGI is 32.6 µM with HS 578T breast; 84.6 µM in the test with UO-31 renal; 37.3 µM with A549 NSCLC; 26.3 µM with NCI-H226 lung; 25.3 µM with LOX IMVI melanoma; 25 µM in the test on SF-539 CNS. Besides, the TGI with SW-620 colon worked out at 30.7 µM; with MDA-MB-435 it was 26.2 µM; in the test with KM12 colon, 22.6 µM; in the test on A498 renal, 35 µM.
Regarding `Nc1ncnc2c1ncn2C1OC(COP(=O)(O)CP(=O)(O)O)C(O)C1O` (stereo not given), the TGI with HS 578T breast, in the test on UO-31 renal, with A549 NSCLC, in the test on NCI-H226 lung, in the test with LOX IMVI melanoma and with SF-539 CNS was > 100 µM in each case. In addition, the TGI with SW-620 colon, in the test on MDA-MB-435, in the test with KM12 colon and in the test on A498 renal was > 100 µM throughout.
`O=C(/C=C/c1ccc(B(O)O)cc1)/C=C/c1ccc(B(O)O)cc1`: the GI50 in the test with HS 578T breast is 1.54 µM; in the test on UO-31 renal it was 1.91 µM; in the test on A549 NSCLC, 3.55 µM; in the test with NCI-H226 lung, 3.23 µM; in the test with LOX IMVI melanoma it was 1.59 µM; with SF-539 CNS, 2.03 µM. Further, the GI50 in the test on SW-620 colon was 1.79 µM; in the test on MDA-MB-435, 1.9 µM; in the test on KM12 colon, 1.66 µM; in the test on A498 renal it was 2.34 µM. The TGI in the test on HS 578T breast turned out to be 5.57 µM; in the test on UO-31 renal, 4.73 µM; with A549 NSCLC, 15.2 µM; in the test with NCI-H226 lung it was 16.1 µM; in the test on LOX IMVI melanoma, 3.07 µM; in the test with SF-539 CNS, 5.35 µM. Also, the TGI in the test with SW-620 colon was found to be 4.02 µM; in the test with MDA-MB-435, 4.24 µM; with KM12 colon, 3.23 µM; in the test with A498 renal, 10.3 µM.
